The source of these data is US12059413B2, “Methods of inhibiting viruses using compositions targeting TSG101-ubiquitin interaction” (The Research Foundation for the State University of New York, priority 2016, dated 2024).

The test system of one assay is HIV-1 Gag VLP. Briefly: Gag VLP production / budding, Western blot analysis. In kind it is cell-based. As for the experimental part: FIG. 15A-D. N16 inhibits HIV-1 NL4-3 and Gag VLP production. A) Effect on virus production. Virus particles from N16-treated 293T cells transfected with pNL4-3 as determined by ELISA assay. Top, The compound was added 6 hr prior to DNA transfection and tissue culture media was harvested 24 hr later. Bottom, The compound was added at the indicated concentration 24 hr after DNA transfection and tissue culture media was harvested 24 hr later. Assay values were normalized to that of the DMSO carrier control. B) Effect on virus infectivity. Infectious viral particles per ng p24 as determined by MAGI assay. C) Left, Electron microscopy of particles at cell surface at 24 hr post-N16 addition; Right, Quantitative analysis of budding morphologies. Cells expressing WT- or P7L-NL4-3 were exposed to DMSO carrier or 50 μM N16. Arrows indicate emerging ‘Early’ buds. D) Effects on Gag VLP production. Top, Western blot analysis. Cells treated at the indicated concentration were transfected with DNA encoding Gag-HA. At the end of the treatment period, tissue culture media was removed for VLP isolation. Cells were suspended in lysis buffer. Blots were probed for Gag-HA and actin. Bottom, Quantitative analysis. Ratio of VLP- or cell-associated Gag to actin normalized to the mock-treated control (0 μM N16). Number of independent trials (n) for A), B), C), and D)=3, 2, 2 and 3, respectively.
FIG. 21A-B. N16 suppresses the inhibitory effect of fusing DUb to Gag. […] Top, Western blot analysis of Gag in cushioned VLP samples; Middle, Gag and actin in cell lysates; Bottom, Quantitative analysis of VLP release efficiency normalized to the WT Gag control (Gag and Gag-DUb differed in sample size in order to yield visible signal); B) Effect of N16 on Gag and GagDUb VLP production. […] Bottom, Quantitative analysis of VLP production (left), lysate Gag (center) and VLP release efficiency (right) normalized to the mock-treated control. […]
For production of virus particles, 293T cells were transfected with pNL4-3-ΔEnv and pIIIB Env3-1 plasmids and for virus-like particles (VLP), with pCMV-Gag-HA as previously described (Watanabe et al. (2013)). For specific infectivity, media-associated p24 was determined by ELISA (Immunodiagnostics, Inc.) and equivalent amounts of p24 were used to infect HeLa-CD4+-LTR-3 gal cells for infectivity measurement by the multinuclear activation of a galactosidase indicator (MAGI) assay. […] For cell-associated Gag analysis, cell pellets were lysed with either Triton X-100 or RIPA buffer with complete mini protease inhibitor cocktail (Roche) and analyzed by Western blotting. Protein bands were visualized using an infrared-based imaging system (Odyssey, LI-COR Biotechnology) and band intensities measured using the Li-Cor Odyssey software version 2.1.15. […]

For a further assay, the target named is T1, Tsg101 UEV domain (Homo sapiens, UniProt Q99816).
T1 construct: Tsg101 UEV domain (residues 2-145) was encoded in a pET-28b vector; His6-TEV site (N, cleaved yes); made in house; host or cells: E. coli Rosetta 2 (DE3) pLysS
T1 sequence (Q99816 2-145): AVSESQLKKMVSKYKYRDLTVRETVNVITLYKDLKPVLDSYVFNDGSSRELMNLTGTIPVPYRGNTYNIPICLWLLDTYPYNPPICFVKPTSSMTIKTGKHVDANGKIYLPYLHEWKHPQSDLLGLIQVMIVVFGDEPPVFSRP
Briefly: NMR / LC-MS binding of compound to Tsg101 UEV domain. The protocol:
N16 (20 mM solution, DMSO) was added to Tsg101 UEV domain in a 10:1 ratio (N16 excess).
For binding studies using NMR spectroscopy, the following complexes were made: Tsg101 UEV-N16, UEV-PTAP, UEV-Ub, UEV-N16-PTAP, and UEV-N16-Ub, all in Tsg101 NMR buffer: 20 mM potassium phosphate, 50 mM NaCl, pH 5.8, with UEV concentration of 200 μM.

The test system of the next assay is HIV-1 NL4-3. In words: Specific virus infectivity by MAGI assay. The conditions noted are these: higher concentrations required. The class given is cell-based. As for the experimental part: FIG. 15A-D. N16 inhibits HIV-1 NL4-3 and Gag VLP production. A) Effect on virus production. Virus particles from N16-treated 293T cells transfected with pNL4-3 as determined by ELISA assay. Top, The compound was added 6 hr prior to DNA transfection and tissue culture media was harvested 24 hr later. Bottom, The compound was added at the indicated concentration 24 hr after DNA transfection and tissue culture media was harvested 24 hr later. Assay values were normalized to that of the DMSO carrier control. B) Effect on virus infectivity. Infectious viral particles per ng p24 as determined by MAGI assay. C) Left, Electron microscopy of particles at cell surface at 24 hr post-N16 addition; Right, Quantitative analysis of budding morphologies. […] Bottom, Quantitative analysis. […]
For production of virus particles, 293T cells were transfected with pNL4-3-ΔEnv and pIIIB Env3-1 plasmids and for virus-like particles (VLP), with pCMV-Gag-HA as previously described (Watanabe et al. (2013)). For specific infectivity, media-associated p24 was determined by ELISA (Immunodiagnostics, Inc.) and equivalent amounts of p24 were used to infect HeLa-CD4+-LTR-3 gal cells for infectivity measurement by the multinuclear activation of a galactosidase indicator (MAGI) assay. […] Virus particle release efficiency was calculated [VLP signal intensity/(VLP signal intensity+cell lysate signal intensity)]. […]

Assay [1] has as its system Tsg101 midbody localization. In words: Tsg101 midbody localization in dividing cells. In kind it is cell-based. The conditions noted are these: N16 50 uM; 200 cells sampled; 12% in absence. The protocol: FIG. 20A-C. N16 inhibition is virus-specific. A) N16 IC50 for Hela and 293T cells. […] Values were calculated by measuring metabolic activity (WST-1 Assay, Roche Applied Science) after cells were grown for 24 hr in N16. Data points represent the mean of 2 assays, 3 time points each for each cell line. […] Values in the absence or presence of N16 (50 uM) were 12% and 13%, respectively). C) N16 effect on EGF-stimulated EFGR degradation. Cells maintained for 24 hr in media containing DMSO alone or DMSO and N16 were stimulated with EGF ligand for a 90 min period and then assessed for EGFR steady-state level by Western analysis. EGFR levels for unstimulated and stimulated sample pairs are shown. A) n=2; B) n=2; C) n=2.
We investigated the specificity of the inhibitory effect. F15 and N16 impaired Tsg101-co-localization with Gag on the plasma membrane (c.f, FIG. 19) and reduced release of the VLPs assembled by Gag (c.f, FIG. 15). […] Cell metabolic activity was not affected after exposure to N16 for 24 hr; it decreased by less than 10% after exposure to N16 for 48 hr (not shown). Tsg101 localization to the midbody of dividing cells requires its recruitment to that location by centrosomal protein of 55k (CEP55) which binds a site in the Tsg101 Pro-rich domain (aa 154-166) (Lee, H. H., et al. (2008)). […]

With `COc1ccc2nc([S@@+]([O-])Cc3ncc(C)c(OC)c3C)[nH]c2c1` [F15, esomeprazole], in the assay with HIV-1 Gag VLP (compared with Tenatoprazole), the “effectiveness in tissue culture budding assay” value was “less effective than Tenatoprazole”. Also, the “residue bound in Tsg101 UEV (NMR and fluorescence perturbances)” value on Tsg101 UEV domain is on record as “bind to residue C73”.

With `COc1ccc2[nH]c([S+]([O-])Cc3ncc(C)c(OC)c3C)nc2n1` (stereo not drawn) [N16, tenatoprazole], in the assay with HIV-1 NL4-3, the “specific infectivity of the virus” value is given as “diminished in dose-dependent fashion”. Moreover, in assay [1], the “frequency of cells exhibiting Tsg101 midbody localization” value is recorded as 13%. In addition, the “budding directed by WT Gag” value in the assay with HIV-1 Gag VLP (50 μM N16, 293T) was “inhibited”. Besides, the “Gag intracellular accumulation and VLP formation” value in the assay with HIV-1 Gag VLP (293T, FIG. 15D) is listed as “dose-dependent reduction”. Besides, the “budding of the Gag-DUb fusion” value in the assay with HIV-1 Gag VLP (N16 present, 293T) was “not inhibited”. At Tsg101 UEV domain, the “residue bound in Tsg101 UEV (NMR and fluorescence perturbances)” value is given as “bind to residue C73”. Also, the “time to complete formation of N16 UEV complex” value on Tsg101 UEV domain (10:1 N16 excess, chemical shift perturbations) is 2 h.
